The values that follow come from patent publication US20250163057A1, “DCN-1 MODULATING COMPOUNDS AND METHODS OF USE THEREOF” (Cellarity, Inc., priority 2023, published 2025).

Read-outs that look alike come from different tables or passages of the source.

For assay [1], the target named is DCN1 (DCUND1) protein PONY domain (Homo sapiens (Human), UniProt Q96GG9). The assay is described as follows: TR-FRET assay, DCN1 binding with FAM-labeled probe. The essentials:
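First, the E. coli-derived PONY domain was biotinylated and paired with streptavidin Tb cryptate. Compounds in 0.1% DMSO were then added to DCN1 and FAM-probe (5 nM/20 nM, or 0.31 nM/900 nM total with 800 nM unlabelled) in TritonX, 200 mM NaCl buffer. Finally, TR-FRET ratios were recorded at 1, 5 and 24 hrs.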
Background: Time-resolved FRET reads energy transfer from a long-lived donor to a nearby acceptor.

Assay [2] has as its system Cullin-3 (CUL3) neddylation. The assay is described as follows: AlphaLISA assay for Cullin-3 (CUL3) neddylation in TF 1 cells. It counts as cell-based. Conditions: Homo sapiens, TF-1, 3 h, 3 hours treatment. The essentials: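 TF 1 cells in unsupplemented IMDM treated with compound concentrations for 3 h, then lysed. CUL3 neddylation detected by AlphaLISA (biotinylated anti-NEDD8, anti-CUL3 acceptor beads overnight, streptavidin donor beads 1 h); normalized to vehicle (0%) and 1 μM DI-1548 (100%), IC50 from Hill fits.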

[3] abbreviates: 24 hr after treatment with compound, read-out: TR FRET IC50 24 hr.
Setting [4] is: TR FRET IC50 1 hr (nM), 1 hr after treatment with compound.
Setting [5] is: read-out: TR FRET IC50 1 hr, 1 hr after treatment with compound.

Sequence of DCN1 (DCUND1) protein PONY domain (Q96GG9 60-248): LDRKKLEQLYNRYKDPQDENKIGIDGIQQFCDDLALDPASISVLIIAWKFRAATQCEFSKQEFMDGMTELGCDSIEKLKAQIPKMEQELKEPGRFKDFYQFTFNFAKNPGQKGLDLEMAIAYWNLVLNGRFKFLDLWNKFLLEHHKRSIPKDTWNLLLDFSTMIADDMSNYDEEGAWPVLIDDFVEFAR

As usually defined, the IC50 is the point on the concentration scale where inhibition reaches its midpoint. Consider `CCN1C(=O)[C@H](NC(=O)c2cccc(C(F)(F)F)c2)[C@H](c2ccc(F)cc2)c2c(C(=O)N3[C@H](C#N)C[C@H]4C[C@H]43)nn(-c3ccccc3)c21` [Compound I-541], for which the IC50 in assay [1] (setting [3]) is 1000 to 3000 nM; in assay [1] (setting [4]), 1000 to 3000 nM; in assay [2], more than 1 µM.
On to `CCN1C(=O)[C@@H](NC(=O)c2cccc(C(F)(F)F)c2)[C@@H](c2ccc(F)cc2)c2c(CN(CC#N)C(C)=O)nn(-c3ccccc3)c21` [Compound I-542, N-((4S,5S)-3-((N-(cyanomethyl)acetamido)methyl)-7-ethyl-4-(4-fluorophenyl)-6-oxo-1-phenyl-4,5,6,7-tetrahydro-1H-pyrazolo[3,4-b]pyridin-5-yl)-3-(trifluoromethyl)benzamide], for which the results for the IC50 in assay [1] (setting [3]), in assay [1] (setting [4]) and in assay [2] were 200 to 1000 nM, 1000 to 3000 nM and 0.1 to 1 µM, respectively.
`CCN1C(=O)[C@H](NC(=O)c2cccc(C(F)(F)F)c2)[C@H](c2ccc(F)cc2)c2c(C(=O)N3CCC[C@H]3C#N)nn(-c3cccc(OCCCN4CCOCC4)c3)c21` [Compound I-544]: the IC50 is 1000 to 3000 nM in assay [1] (setting [3]), 1000 to 3000 nM in assay [1] (setting [4]) and more than 1 µM in assay [2].
Regarding `CCN1C(=O)[C@@H](NC(=O)[C@@H]2CCc3nccc(=O)n32)[C@@H](C2CC2)c2c(C(=O)N3[C@H](C#N)C[C@H]4C[C@H]43)nn(C3CCOCC3)c21` [Compound I-548], the IC50 is 1000 to 3000 nM in assay [1] (setting [3]), 1000 to 3000 nM in assay [1] (setting [4]) and more than 1 µM in assay [2].
For `CCN1C(=O)[C@@H](NC(=O)c2cccc(C(F)(F)F)c2)[C@@H](C2CC2)c2c(C(=O)N(C)[C@@H](C)C#N)nn(C3CCOCC3)c21` [Compound I-549, (4S,5S)—N—((S)-1-cyanoethyl)-4-cyclopropyl-7-ethyl-N-methyl-6-oxo-1-(tetrahydro-2H-pyran-4-yl)-5-(3-(trifluoromethyl)benzamido)-4,5,6,7-tetrahydro-1H-pyrazolo[3,4-b]pyridine-3-carboxamide], the IC50 in assay [1] (setting [3]) was not above 200 nM; in assay [1] (setting [4]) it was 200 to 1000 nM; in assay [2], not above 0.1 µM.
As for `CCN1C(=O)[C@@H](NC(=O)c2cccc(C(F)(F)F)c2)[C@@H](C2CC2)c2c(C(=O)N(C)[C@@H](C#N)CCN(C)C)nn(C3CCOCC3)c21` [Compound I-550], the IC50 in assay [1] (setting [3]) was not above 200 nM; in assay [1] (setting [5]) it was not above 200 nM; in assay [2], not above 0.1 µM.
As for `CCN1C(=O)[C@@H](NC(=O)c2cccc(C(F)(F)F)c2)[C@@H](C2CC2)c2c(C(=O)N3CCOC[C@@H]3C#N)nn(C3CCOCC3)c21` [Compound I-551], the IC50 in assay [1] (setting [3]) lay within 200 to 1000 nM; in assay [1] (setting [4]) it was 200 to 1000 nM; in assay [2] it was 0.1 to 1 µM.
For `CCN1C(=O)[C@H](NC(=O)c2cccc(C(F)(F)F)c2)[C@H](C2CC2)c2c(C(=O)N(CC#N)C3CC3)nn(-c3ccccc3)c21` [Compound I-557], the IC50 in assay [1] (setting [3]) is 1000 to 3000 nM; in assay [1] (setting [4]), 1000 to 3000 nM; in assay [2] it was more than 1 µM.
Regarding `CCN1C(=O)[C@H](NC(=O)c2cccc(C(F)(F)F)c2)[C@H](c2ccc(F)cc2)c2c(C(=O)N3CCC[C@H]3C#N)nn(C3CC3)c21` [Compound I-558], the IC50 in assay [1] (setting [3]) was 1000 to 3000 nM; in assay [1] (setting [4]) it was 1000 to 3000 nM; in assay [2], more than 1 µM.
Turning to `CCN1C(=O)[C@@H](NC(=O)c2cccc(C(F)(F)F)c2)[C@@H](C2CCCC2)c2c(C(=O)N(C)[C@@H](C)C#N)nn(C3CCOCC3)c21` [Compound I-559], the IC50 in assay [1] (setting [3]) was not above 200 nM; in assay [1] (setting [4]), 200 to 1000 nM; in assay [2] it was not above 0.1 µM.
On to `CCN1C(=O)[C@@H](NC(=O)c2cccc(C(F)(F)F)c2)[C@@H](C2CC2)c2c(C(=O)N3CC[C@H]3C#N)nn(-c3ccccc3)c21` [Compound I-561], for which the results for the IC50 in assay [1] (setting [3]), in assay [1] (setting [4]) and in assay [2] were not above 200 nM, 1000 to 3000 nM and not above 0.1 µM, respectively.
On to `CCN1C(=O)[C@@H](NC(=O)c2ccc3cn[nH]c3c2)[C@@H](C2CC2)c2c(C(=O)N3[C@H](C#N)C[C@H]4C[C@H]43)nn(C3CCOCC3)c21` [Compound I-563], for which the IC50 in assay [1] (setting [3]) is 1000 to 3000 nM; in assay [1] (setting [4]), 1000 to 3000 nM; in assay [2] it was more than 1 µM.
As for `CCN1C(=O)[C@@H](NC(=O)c2ccc3ncoc3c2)[C@@H](C2CC2)c2c(C(=O)N3[C@H](C#N)C[C@H]4C[C@H]43)nn(C3CCOCC3)c21` [Compound I-564], the figures for the IC50 in assay [1] (setting [3]), in assay [1] (setting [4]) and in assay [2] were 1000 to 3000 nM, 1000 to 3000 nM and more than 1 µM, respectively.
For the compound `CCN1C(=O)[C@@H](NC(=O)c2cccc3ncoc23)[C@@H](C2CC2)c2c(C(=O)N3[C@H](C#N)C[C@H]4C[C@H]43)nn(C3CCOCC3)c21` [Compound I-565], the IC50 in assay [1] (setting [3]) was not above 200 nM; in assay [1] (setting [4]) it was 200 to 1000 nM; in assay [2] it was not above 0.1 µM.
As for `CCN1C(=O)[C@@H](NC(=O)[C@H]2C[C@@H]3CCCC[C@@H]3N2)[C@@H](C2CC2)c2c(C(=O)N3[C@H](C#N)C[C@H]4C[C@H]43)nn(C3CCOCC3)c21` [Compound I-566], the IC50 in assay [1] (setting [3]) is 1000 to 3000 nM; in assay [1] (setting [4]) it was 1000 to 3000 nM; in assay [2], more than 1 µM.
`CCCn1nc(C(=O)N(C)C(C)C#N)c2c1N(CC)C(=O)[C@@H](NC(=O)c1cccc(C(F)(F)F)c1)[C@H]2C1CC1` (stereo partly drawn) [Compound I-569]: the IC50 in assay [1] (setting [3]) was not above 200 nM; in assay [1] (setting [4]), 200 to 1000 nM; in assay [2] it was not above 0.1 µM.
For `CCN1C(=O)[C@@H](NC(=O)c2cccc(C(F)(F)F)c2)[C@@H](c2ccc(F)cc2)c2c(C(=O)N3CC[C@@H]3C#N)nn(-c3ccccc3)c21` [Compound I-570] the same measures were 200 to 1000 nM, 1000 to 3000 nM and 0.1 to 1 µM.
On to `CCCn1nc(C(=O)N2CCC[C@H]2C#N)c2c1N(CC)C(=O)[C@H](NC(=O)c1cccc(C(F)(F)F)c1)[C@@H]2C1CC1` [Compound I-571], for which the results for the concentration for half-maximal inhibition (IC50) in assay [1] (setting [3]), in assay [1] (setting [4]) and in assay [2] were 1000 to 3000 nM, 1000 to 3000 nM and more than 1 µM, respectively.
As for `CCCn1nc(C(=O)N(CC#N)C2CC2)c2c1N(CC)C(=O)[C@H](NC(=O)c1cccc(C(F)(F)F)c1)[C@@H]2c1ccc(F)cc1` [Compound I-572], the IC50 in assay [1] (setting [3]) is 1000 to 3000 nM; in assay [1] (setting [4]), 1000 to 3000 nM; in assay [2] it was more than 1 µM.
Take `CCN1C(=O)[C@@H](NC(=O)c2cccc(C(F)(F)F)c2)[C@@H](c2ccc(F)cc2)c2c(CN(C#N)CCCN3CC4(COC4)C3)nn(-c3ccccc3)c21` [Compound I-577]: the IC50 was 200 to 1000 nM in assay [1] (setting [3]), 200 to 1000 nM in assay [1] (setting [4]) and more than 1 µM in assay [2].
Consider `CCN1C(=O)[C@@H](NC(=O)c2cccc(C(F)(F)F)c2)[C@@H](c2ccc(F)cc2)c2c([C@@H](C)N(C#N)CCCN(C)C)nn(-c3ccccc3)c21` [Compound I-578, N-((4S,5S)-3-((R)-1-(N-(3-(dimethylamino)propyl)cyanamido)ethyl)-7-ethyl-4-(4-fluorophenyl)-6-oxo-1-phenyl-4,5,6,7-tetrahydro-1H-pyrazolo[3,4-b]pyridin-5-yl)-3-(trifluoromethyl)benzamide], for which the results for the IC50 in assay [1] (setting [3]), in assay [1] (setting [4]) and in assay [2] were 1000 to 3000 nM, 1000 to 3000 nM and 0.1 to 1 µM, respectively.
On to `CCN1C(=O)[C@@H](NC(=O)c2cccc(C(F)(F)F)c2)[C@@H](c2ccc(F)cc2)c2c(CN(C#N)CCCN3CCC4(CC3)COC4)nn(-c3ccccc3)c21` [Compound I-579], for which the half-maximal inhibitory concentration (IC50) in assay [1] (setting [3]) was not above 200 nM; in assay [1] (setting [5]) it was not above 200 nM; in assay [2] it was not above 0.1 µM.
